Results: publication PMC9609871, “Binding and Kinetic Analysis of Human Protein Phosphatase PP2A Interactions with Caspase 9 Protein and the Interfering Peptide C9h” (Pharmaceutics, 2022)
Peptide text beside a SMILES is read from it. * marks the point of attachment. Biotin = O=C1N[C@H]2[C@H](CS[C@H]2CCCCC(=O)*)N1

Experiments:
PP2A [1] = molecular target: T1, PP2A (Homo sapiens, UniProt P67775); test: ELISA: PP2A binding to immobilized biotinylated C9h peptides; conditions: OD 450 nm
T1 construct: purchased LSBio
T1 sequence (P67775 whole entry): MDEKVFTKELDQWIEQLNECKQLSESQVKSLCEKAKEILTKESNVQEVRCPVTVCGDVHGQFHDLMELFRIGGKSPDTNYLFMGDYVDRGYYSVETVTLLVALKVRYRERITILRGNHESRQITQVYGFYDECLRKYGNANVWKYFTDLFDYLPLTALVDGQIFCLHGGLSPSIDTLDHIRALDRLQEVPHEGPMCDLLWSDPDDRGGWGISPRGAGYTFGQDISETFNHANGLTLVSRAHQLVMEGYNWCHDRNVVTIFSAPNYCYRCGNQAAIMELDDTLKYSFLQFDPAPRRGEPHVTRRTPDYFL
Description: A total of 100 μL of biotinylated peptides diluted at 100 μM in PBS was incubated for 2 h at room temperature in a 96-well Streptavidine-coated plate (Pierce, Illkirch, Strasbourg, France). Wells were washed five times with PBS/0.05% Tween-20 (PBST) and filled with 100 μL of PP2A (Sigma) diluted in PBS/2.5% BSA (Sigma) at the indicated dilutions. The plate was incubated over night at 4 °C and washed five times with PBST. A total of 100 μL of rabbit polyclonal IgG anti-human PP2Aα (Santa Cruz Biotechnology, Heidelberg, Germany) was added at 5 μg/mL in PBS/BSA for 1 h at room temperature. Wells were washed 5 times with PBST and filled with 100 μL of HRP conjugated anti-rabbit IgG (Sigma) diluted at 1:20,000 in PBS/BSA for 1 h at room temperature. Wells were washed 5 times with PBST, and 100 μL of TMB substrate (Pierce) were added and incubated for 15–45 min. The reaction was stopped with 50 μL of 2 N sulphuric acid, and the absorbance was measured at 450 nm on a Multiskan EX plate reader (Thermo Scientific, Illkirch, Strasbourg, France). The Caspase 9 peptide C9h was labelled with biotin at the N-terminal and C-terminal end of the peptide.

PP2A [2] = molecular target: T1, PP2A; test: BLI: PP2A binding to immobilized biotinylated C9h-Cter peptide (Streptavidin biosensor)
Description: Kinetic measurements of PP2A against biotinylated C9h-Cter peptide were run with Streptavidin biosensors (Fortebio, #18-5019). The initial step consisted of coating the biosensor with the peptide diluted in SD at 100 µM for 180 s in 4 µL (not shown) and was followed by three steps for the kinetic study: (i) initial baseline in 300 µL SD for 30 s was measured; (ii) association of PP2A at the indicated concentrations for 180 s in 4 µL was used; and (iii) dissociation step was then monitored in 300 µL SD for 150 s.
Experiments using empty immunosensors (no ligand loaded) were run as control. Sensorgrams were fit globally to a 1:1 binding model by BLItz Pro software, from which the association (kon) and dissociation (koff) rate constants and apparent affinities (KD) were calculated. X2 is the sum of squared deviations between the actual data point and the fitted curve. Values close to zero indicate a good curve fit. The R2 coefficient of determination is a statistical measure of how well the fitted curve approximate the real data points. Values of R2 near 1 indicate a near-perfect fit.

Caspase 9 = test: BLI: Caspase 9 analyte binding to immobilized PP2A (Protein A biosensor, anti-PP2A); set-up: species or system human; conditions: summary: close to, Caspase 9 analyte on immobilized PP2A; read-out: affinity, both models
Description: Kinetic analysis was performed based on biolayer interferometry (BLI) by using a BLItz instrument (ForteBio, Bayonne, France) at room temperature. Prior to use, each biosensor was hydrated in sample diluent (SD: PBS1X, pH 7.0, 0.02% Tween 20, 0.1% BSA) for at least 10 min. Kinetic measurements of PP2A/Caspase 9 interactions were run with Protein A biosensors (Fortebio) and consisted of seven steps, all performed in reaction buffer, as follows: (i) initial baseline in 300 µL SD for 30 s was measured; (ii) 4 µL of mouse anti-Caspase 9 or rabbit anti-PP2A were immobilized on the sensor for 150 s at 133 nM; (iii) the immunosensor was washed with 300 µL SD for 120 s; (iv) 4 µL of purified ligand Caspase 9 at 566 nM (Origen) or PP2A at 694 nM (LSBio) were loaded on the immunosensor for 150 s; (v) the ligand-coated immunosensor was washed with 300 µL SD for 120 s; (vi) association of purified analytes diluted in SD at the mentioned concentrations was studied for 150 s in 4 µL; and (vii) dissociation step was then monitored in 300 µL SD for 120 s.
Experiments using empty immunosensors (no ligand loaded) were run as control. Sensorgrams were fit globally to a 1:1 binding model by BLItz Pro software, from which the association (kon) and dissociation (koff) rate constants and apparent affinities (KD) were calculated. […]

Compound	signal recognition compared with C9h-Nter (PP2A [1]; PP2A 0.6 μg/mL, duplicate wells)	binding of PP2A to biotinylated peptide (PP2A [1]; peptide 100 μM on streptavidin plate, PP2A 0.6 μg/mL overnight at 4 °C, mean of duplicate wells, representative of two independent experiments, irrelevant biotinylated peptide as negative control)	koff (PP2A [2]; biotinylated C9h-Cter coated at 100 µM, analyte PP2A 463, 556 and 694 nM, pH 7.0, room temperature, dissociation 150 s, global 1:1 fit)	dissociation rate of PP2A relative to that with immobilized Caspase 9 (PP2A [2]; immobilized C9h-Cter versus immobilized Caspase 9)	affinity for PP2A compared with whole protein Caspase 9 (PP2A [2]; qualitative comparison)	Kd (Caspase 9)
CC[C@H](C)[C@H](NC(=O)[C@H](CC(=O)O)NC(=O)[C@H](CC(=O)O)NC(=O)[C@H](CC(C)C)NC(=O)[C@@H](NC(=O)[C@H](CCC(=O)O)NC(=O)[C@@H](NC(=O)[C@@H](N)Cc1ccc(O)cc1)C(C)C)[C@@H](C)O)C(=O)N[C@@H](Cc1ccccc1)C(=O)N[C@@H](CCC(=O)O)C(=O)N[C@@H](CCC(N)=O)C(=O)N[C@@H](Cc1c[nH]c2ccccc12)C(=O)N[C@@H](C)C(=O)N[C@@H](Cc1c[nH]cn1)C(=O)N[C@@H](CO)C(=O)N[C@@H](CCC(=O)O)C(=O)N[C@@H](CC(=O)O)C(=O)N[C@@H](CC(C)C)C(=O)N[C@@H](CCCCNC(=O)CCCC[C@@H]1SC[C@@H]2NC(=O)N[C@@H]21)C(=O)O [C9h-Cter] (H-YVETLDDIFEQWAHSEDLK(Biotin)-OH; N-terminus and C-terminus assumed)	stronger signal recognition than that of C9h-Nter	bind to the PP2A protein in a specific manner	0.0087 s⁻¹	approximatively one log higher	slightly lower affinity	–
PP2A: protein phosphatase 2A (LSBio), serine/threonine phosphatase	–	–	–	–	–	~100 nM
